Experimental data from ChEMBL document CHEMBL2150899, “Compound instability in dimethyl sulphoxide, case studies with 5-aminopyrimidines and the implications for compound storage and screening” (Bioorg Med Chem Lett, 2012).

Key:
Format in all cases: physicochemical
[1] = Drug degradation in DMSO
[2] = Drug degradation in DMSO assessed as murexide by UV-Vis spectrophotometry
[3] = Drug degradation in DMSO assessed as 5-aminobarbiturate formation by UV-Vis spectrophotometry
[4] = Drug degradation in DMSO assessed as oxidation after overnight incubation
[5] = Drug degradation in DMSO assessed as oxidation after two months; settings: 1461 h
[6] = Drug degradation in DMSO assessed as 2,6-diamino-5-(2,6-diamino-4-oxopyrimidin-5(4H)-ylideneamino)pyrimidin-4(3H)-one formation at 10 mM incubated over 2 months by UV-Vis spectrophotometry; settings: 1461 h, 10000 µM
[7] = Drug degradation in DMSO assessed as 2,6,8-triaminopyrimido[5,4-g]pteridin-4(3H)-one formation at 10 mM incubated over 2 months by UV-Vis spectrophotometry; settings: 1461 h, 10000 µM
[8] = Drug degradation in DMSO after 7 days by NMR spectroscopy; settings: 168 h
[9] = Drug degradation in DMSO assessed as 2,6-diamino-5-(2,6-diamino-4-oxopyrimidin-5(4H)-ylideneamino)pyrimidin-4(3H)-one formation after 1 day by NMR spectroscopy; settings: 24 h
[10] = Drug degradation in DMSO assessed as ammonium cation formation after 2 days by NMR spectroscopy; settings: 48 h
[11] = Drug degradation in DMSO assessed as 2,6,8-triaminopyrimido[5,4-g]pteridin-4(3H)-one after 87 days by NMR spectroscopy; settings: 2088 h
[12] = Drug degradation in DMSO assessed as 2,6-diamino-5-(2,6-diamino-4-oxopyrimidin-5(4H)-ylideneamino)pyrimidin-4(3H)-one formation after 11 days by UV-Vis spectrophotometry; settings: 264 h
[13] = Drug degradation in DMSO assessed as 2,6,8-triaminopyrimido[5,4-g]pteridin-4(3H)-one formation after 11 days by UV-Vis spectrophotometry; settings: 264 h
[14] = Drug degradation in alkalised DMSO assessed as 2,6-diamino-5-(2,6-diamino-4-oxopyrimidin-5(4H)-ylideneamino)pyrimidin-4(3H)-one formation
[15] = Drug degradation in alkalised DMSO assessed as 2,6,8-triaminopyrimido[5,4-g]pteridin-4(3H)-one formation after 24 hrs
[16] = Drug degradation in acidified DMSO
[17] = Drug degradation in DMSO assessed as pyrimido[5,4-g]pteridine-2,4,6,8-tetraamine formation by UV-Vis spectrophotometry
[18] = Drug degradation in DMSO assessed as pyrimido[4,5-g]pteridine-2,4,7,9-tetraamine formation by UV-Vis spectrophotometry
[19] = Drug degradation in DMSO assessed as ammonium cation formation by NMR spectroscopy
[20] = Drug degradation in DMSO by UV-Vis spectrophotometry
[21] = Drug degradation in DMSO assessed as oxidation
[22] = Drug degradation in DMSO assessed as methoxy group hydrolysis by NMR spectrophotometry
[23] = Drug degradation in DMSO by NMR spectrophotometry
[24] = Drug degradation in DMSO assessed as bis-alloxazine and pyrimido[4,5-g]pteridine-2,4,7,9(1H,3H,6H,8H)-tetraone formation after 3 months; settings: 2191.5 h
[25] = Drug degradation in DMSO assessed as pyrimido[5,4-g]pteridine-4,6(3H,7H)-dione formation after 2 months; settings: 1461 h
[26] = Drug degradation in DMSO after 2 months by UV-Vis spectrophotometry; settings: 1461 h
[27] = Drug degradation in DMSO assessed as bis-alloxazine and pyrimido[4,5-g]pteridine-2,4,7,9(1H,3H,6H,8H)-tetraone formation

For `Nc1c[nH]c(=O)[nH]c1=O`, which Drug degradation [1] is on record?
Its Drug degradation is “Active”.

And the Drug degradation [2]?
Its Drug degradation is “Active”.

What about the Drug degradation [3] of the same compound?
Its Drug degradation is “Active”.

Which Drug degradation [1] does the source give for `Nc1cc(O)nc(N)n1` here?
The Drug degradation was “Not Active”.

Which results are given for `Nc1nc(N)c(N)c(O)n1`?
Drug degradation [1]: Active; Drug degradation [4]: Active; Drug degradation [5]: Active; Drug degradation [6]: Active; Drug degradation [7]: Active; Drug degradation [8]: Active; Drug degradation [9]: Active; Drug degradation [10]: Active; Drug degradation [11]: Active; Drug degradation [12]: Active; Drug degradation [13]: Active; Drug degradation [14]: Active; Drug degradation [15]: Active; Drug degradation [16]: Active

Which Drug degradation [1] does the source give for `Nc1nc(N)c(N)c(N)n1` here?
Its Drug degradation is “Active”.

And the Drug degradation [4]?
The Drug degradation was “Active”.

What about the Drug degradation [17] of the same compound?
Its Drug degradation is “Active”.

What about the Drug degradation [18] of the same compound?
The Drug degradation was “Active”.

With `NC1C(=O)NC(=O)NC1=O` as the compound, how does the Drug degradation [1] read?
Its Drug degradation is “Active”.

What about the Drug degradation [19] of the same compound?
Its Drug degradation is “Active”.

What about the Drug degradation [2] of the same compound?
Its Drug degradation is “Active”.

With `Nc1nc(S)[nH]c(=O)c1N` as the compound, how does the Drug degradation [1] read?
Its Drug degradation is “Active”.

What about the Drug degradation [19] of the same compound?
Its Drug degradation is “Active”.

What about the Drug degradation [20] of the same compound?
The Drug degradation was “Active”.

What does the source list for `COc1nc(N)nc(OC)c1N`?
Drug degradation [1]: Active; Drug degradation [21]: Active; Drug degradation [22]: Active

For `Nc1nc(Cl)c(N)c(Cl)n1`, which Drug degradation [1] is on record?
Its Drug degradation is “Active”.

What about the Drug degradation [20] of the same compound?
The Drug degradation was “Active”.

And the Drug degradation [21]?
Its Drug degradation is “Active”.

What about the Drug degradation [23] of the same compound?
Its Drug degradation is “Active”.

Which Drug degradation [1] does the source give for `Nc1c[nH]c(=O)nc1N` here?
Its Drug degradation is “Active”.

What about the Drug degradation [21] of the same compound?
Its Drug degradation is “Active”.

What about the Drug degradation [24] of the same compound?
The Drug degradation was “Active”.

For `Nc1ncnc(O)c1N`, which Drug degradation [1] is on record?
The Drug degradation was “Active”.

And the Drug degradation [25]?
Its Drug degradation is “Active”.

With `Nc1ncnc(N)c1N` as the compound, how does the Drug degradation [20] read?
The Drug degradation was “Not Active”.

And the Drug degradation [26]?
The Drug degradation was “Not Active”.

Which Drug degradation [21] does the source give for `Nc1c(Cl)ncnc1Cl` here?
The Drug degradation was “Not Active”.

What does the source list for `Nc1[nH]c(=O)[nH]c(=O)c1N`?
Drug degradation [1]: Active; Drug degradation [27]: Active
